Assay results taken from patent US8623879B2, “1-heterocyclyl-1,5-dihydro-pyrazolo[3,4-D] pyrimidin-4-one derivates and their use as PDE9A modulators” (Boehringer Ingelheim International GmbH, priority 2008, dated 2014).

Molecular target: T1, human PDE9A2 (Homo sapiens, UniProt O76083)
T1 construct: made in house; host or cells: Sf9 insect cells (infected); crude lysate used as enzyme source
Test: PDE9A2 enzymatic activity assay (scintillation proximity assay, SPA)
Assay type: biochemical
Details: for inhibition at 10 µM: read-out: % inhibition of PDE9A2 (at 10 micromolar concentration), 10 micromolar concentration; for inhibition at 10 µM / % inhibition of PDE9A2 (at 10 micromolar concentration): values above 100% adjusted to 100%; for IC50: reported only as range 1-100 or 101-1200 nanomolar, specific value lies within range, read-out: IC50 within range [nanomolar (nM)]

T1 sequence (O76083 1-533 isoform O76083-2): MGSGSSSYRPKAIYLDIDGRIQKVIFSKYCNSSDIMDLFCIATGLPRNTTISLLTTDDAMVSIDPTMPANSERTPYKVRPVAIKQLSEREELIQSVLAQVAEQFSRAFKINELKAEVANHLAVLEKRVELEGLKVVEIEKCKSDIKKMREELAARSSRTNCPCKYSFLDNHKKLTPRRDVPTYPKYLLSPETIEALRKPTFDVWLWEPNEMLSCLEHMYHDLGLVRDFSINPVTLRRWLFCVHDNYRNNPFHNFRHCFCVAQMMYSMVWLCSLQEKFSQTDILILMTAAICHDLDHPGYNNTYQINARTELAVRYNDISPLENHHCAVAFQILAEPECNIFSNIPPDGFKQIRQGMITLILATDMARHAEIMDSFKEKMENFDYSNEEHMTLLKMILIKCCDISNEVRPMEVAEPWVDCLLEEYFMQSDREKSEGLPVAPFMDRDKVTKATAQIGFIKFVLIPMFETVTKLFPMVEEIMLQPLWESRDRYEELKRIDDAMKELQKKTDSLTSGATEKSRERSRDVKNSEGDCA

Row | inhibition at 10 µM [%] | IC50 [nM] | % inhibition of PDE9A2 (at 10 micromolar concentration) [%] | SMILES
1 | 100 | 1 to 100 | – | O=c1[nH]c(CC2CCCCCC2)nc2c1cnn2C1CCOCC1 [Example 1]
2 | 83 | 101 to 1200 | – | O=c1[nH]c(Cc2ccccc2)nc2c1cnn2C1CCNCC1 [Example 202]
3 | 99 | 1 to 100 | – | O=c1[nH]c(Cc2cccc(F)c2)nc2c1cnn2C1CCOCC1 [Example 139]
4 | 78 | 101 to 1200 | – | O=c1[nH]c(CC2CCOC2)nc2c1cnn2C1CCOC1 (mixture of isomers) [Example 81]
5 | 98 | 1 to 100 | – | CCC(C)Cc1nc2c(cnn2C2CCOCC2)c(=O)[nH]1 (racemic) [Example 135]
6 | 98 | 1 to 100 | – | O=c1[nH]c(Cc2ccccc2Cl)nc2c1cnn2C1CCOCC1 [Example 4]
7 | 95 | 1 to 100 | – | Cc1cccnc1Cc1nc2c(cnn2C2CCOCC2)c(=O)[nH]1 [Example 56]
8 | 93 | 101 to 1200 | – | Cc1cccnc1Cc1nc2c(cnn2C2CCCOC2)c(=O)[nH]1 (racemic) [Example 100]
9 | 95 | 101 to 1200 | – | COc1cccnc1Cc1nc2c(cnn2C2CCOCC2)c(=O)[nH]1 [Example 67]
10 | 97 | 1 to 100 | – | O=c1[nH]c(C(F)c2ccccc2)nc2c1cnn2C1CCOCC1 (racemic) [Example 12]
11 | 97 | 1 to 100 | – | CC(Cc1nc2c(cnn2C2CCOCC2)c(=O)[nH]1)C(F)(F)F (single isomer, unassigned) [Example 131]
12 | 100 | 1 to 100 | – | O=c1[nH]c(Cc2ccc(F)c(Br)c2)nc2c1cnn2C1CCOCC1 [Example 136]
13 | 99 | 1 to 100 | – | O=c1[nH]c(Cc2cc(Cl)cc(Cl)c2)nc2c1cnn2C1CCOCC1 [Example 38]
14 | 97 | 1 to 100 | – | O=c1[nH]c(CC2CC2)nc2c1cnn2C1CCOCC1 [Example 47]
15 | 96 | 1 to 100 | – | O=c1[nH]c(CCCC(F)(F)F)nc2c1cnn2C1CCOCC1 [Example 25]
16 | 100 | 1 to 100 | – | O=c1[nH]c(Cc2ccc(F)c(Cl)c2)nc2c1cnn2C1CCCOC1 (racemic) [Example 102]
17 | 97 | 1 to 100 | – | COc1cccc(Cl)c1Cc1nc2c(cnn2C2CCOCC2)c(=O)[nH]1 [Example 33]
18 | 96 | 1 to 100 | – | CCC(Cc1nc2c(cnn2C2CCOCC2)c(=O)[nH]1)C(F)(F)F (racemic) [Example 48]
19 | 93 | 101 to 1200 | – | O=c1[nH]c(CCC(F)(F)F)nc2c1cnn2C1CCOCC1 [Example 34]
20 | 100 | 101 to 1200 | – | COc1ccccc1CCc1nc2c(cnn2C2CCOCC2)c(=O)[nH]1 [Example 40-3]
21 | 100 | 101 to 1200 | – | COc1ccc(C#N)c(Cc2nc3c(cnn3C3CCOCC3)c(=O)[nH]2)c1 [Example 35]
22 | 99 | 1 to 100 | – | O=c1[nH]c(Cc2ccccc2Br)nc2c1cnn2C1CCOCC1 [Example 5]
23 | 95 | 101 to 1200 | – | Cc1cccn(-c2ccccc2Cc2nc3c(cnn3C3CCOCC3)c(=O)[nH]2)c1=O [Example 40-7]
24 | 96 | 101 to 1200 | – | O=c1[nH]c(Cc2ccccn2)nc2c1cnn2C1CCCOC1 (racemic) [Example 94]

More lines, now with the values behind:

Row | SMILES | inhibition at 10 µM [%] | IC50 [nM] | % inhibition of PDE9A2 (at 10 micromolar concentration) [%]
25 | CC1CC(n2ncc3c(=O)[nH]c(Cc4ccccc4C(F)(F)F)nc32)CCO1 (racemic) [Example 113] | 92 | 101 to 1200 | –
26 | COc1ccccc1Cc1nc2c(cnn2C2CCN(C(=O)c3ccccc3)C2)c(=O)[nH]1 (racemic) [Example 170] | 75 | 101 to 1200 | –
27 | O=C(c1ccccc1)N1CCCC(n2ncc3c(=O)[nH]c(Cc4ccccc4F)nc32)C1 (racemic) [Example 186] | 97 | 1 to 100 | –
28 | CCOc1ccccc1Cc1nc2c(cnn2C2CCCN(C(=O)OC(C)(C)C)C2)c(=O)[nH]1 (racemic) [Example 30] | 100 | 1 to 100 | –
29 | N#Cc1ccccc1Cc1nc2c(cnn2C2CCCOC2)c(=O)[nH]1 (racemic) [Example 126] | 98 | 1 to 100 | –
30 | CC1CC(n2ncc3c(=O)[nH]c(CC4CCCC4)nc32)CCO1 (racemic) [Example 117] | – | 1 to 100 | 97
31 | CC(=O)N1CCCC(n2ncc3c(=O)[nH]c(CC4CCC4)nc32)C1 (racemic) [Example 180] | 96 | 101 to 1200 | –
32 | O=c1[nH]c(CC2CCCCC2)nc2c1cnn2C1CCOC1 (racemic) [Example 75] | 98 | 1 to 100 | –
33 | CC(Cc1nc2c(cnn2C2CCOC2)c(=O)[nH]1)C(F)(F)F (mixture of isomers) [Example 72] | 91 | 101 to 1200 | –
34 | COc1cccnc1Cc1nc2c(cnn2C2CCCOC2)c(=O)[nH]1 (racemic) [Example 122] | 85 | 101 to 1200 | –
35 | O=c1[nH]c(CC2CC2)nc2c1cnn2C1CC[S+]([O-])CC1 (centres unmarked) [Example 236] | 93 | 101 to 1200 | –
36 | CC(=O)N1CCCC(n2ncc3c(=O)[nH]c(Cc4ccccc4F)nc32)C1 (racemic) [Example 187] | 96 | 1 to 100 | –
37 | O=c1[nH]c(CC2CCCC2)nc2c1cnn2C1CCOC1 (racemic) [Example 69] | 99 | 1 to 100 | –
38 | CC(C)Cc1nc2c(cnn2C2CCOC(C)C2)c(=O)[nH]1 (racemic) [Example 115] | – | 101 to 1200 | 92
39 | O=C(c1ccccc1)N1CCC(n2ncc3c(=O)[nH]c(CC4CCCC4)nc32)C1 (racemic) [Example 167] | 93 | 101 to 1200 | –
40 | CN(C)C(=O)N1CCCC(n2ncc3c(=O)[nH]c(CC4CCCC4)nc32)C1 (racemic) [Example 160] | 96 | 1 to 100 | –
41 | CC1CC(n2ncc3c(=O)[nH]c(CC4CCCC4)nc32)CCO1 (racemic) [Example 112] | 97 | 1 to 100 | –
42 | O=c1[nH]c(CC2CCCC2)nc2c1cnn2C1CCCN(CC(F)(F)F)C1 (racemic) [Example 191] | 92 | 101 to 1200 | –
43 | CN1CCC(n2ncc3c(=O)[nH]c(CC4CCCC4)nc32)C1 (racemic) [Example 207] | 100 | 1 to 100 | –
44 | CCOc1ccccc1Cc1nc2c(cnn2C2CCCN(C(C)=O)C2)c(=O)[nH]1 (racemic) [Example 179] | 91 | 101 to 1200 | –

Row | SMILES | inhibition at 10 µM [%] | IC50 [nM] | % inhibition of PDE9A2 (at 10 micromolar concentration) [%]
45 | CC(C)Cc1nc2c(cnn2C2CCOC(C)(C)C2)c(=O)[nH]1 (racemic) [Example 106] | 87 | 101 to 1200 | –
46 | CN1CCCC(n2ncc3c(=O)[nH]c(CC4CCCC4)nc32)C1 (racemic) [Example 208] | 100 | 101 to 1200 | –
47 | CCC(Cc1nc2c(cnn2C2CCN(C)C2)c(=O)[nH]1)C(F)(F)F (mixture of isomers) [Example 213] | 86 | 101 to 1200 | –
48 | CC1(C)CC(n2ncc3c(=O)[nH]c(CC4CCCC4)nc32)CCO1 (racemic) [Example 104] | 95 | 101 to 1200 | –
49 | CC(=O)N1CCC(Oc2ccccc2Cc2nc3c(cnn3C3CCOCC3)c(=O)[nH]2)CC1 [Example 68] | 97 | 1 to 100 | –
50 | CC(=O)N1CCCC(n2ncc3c(=O)[nH]c(Cc4ccccc4OC(F)(F)F)nc32)C1 (racemic) [Example 188] | 96 | 1 to 100 | –
51 | O=c1[nH]c(Cc2ccccc2OC(F)(F)F)nc2c1cnn2C1CCNCC1 [Example 203] | 84 | 101 to 1200 | –
52 | CN1CCC(n2ncc3c(=O)[nH]c(Cc4ccccc4OC(F)(F)F)nc32)CC1 [Example 150] | 90 | 101 to 1200 | –
53 | O=c1[nH]c(Cc2ccccc2OC(F)(F)F)nc2c1cnn2C1CCNC1 (racemic) [Example 200] | 91 | 101 to 1200 | –
54 | CC1CC(n2ncc3c(=O)[nH]c(Cc4ccccc4C#N)nc32)CCO1 (racemic) [Example 121] | 94 | 101 to 1200 | –
55 | CN(C)C(=O)N1CCCC(n2ncc3c(=O)[nH]c(Cc4ccccc4)nc32)C1 (racemic) [Example 159] | 100 | 1 to 100 | –
56 | O=C(Oc1ccc(F)cc1)N1CCCC(n2ncc3c(=O)[nH]c(CC4CCCC4)nc32)C1 (racemic) [Example 162] | 98 | 1 to 100 | –
57 | O=C(Oc1ccc(F)cc1)N1CCCC(n2ncc3c(=O)[nH]c(Cc4ccccc4)nc32)C1 (racemic) [Example 185] | 100 | 1 to 100 | –
58 | O=C(c1ccccc1)N1CCCC(n2ncc3c(=O)[nH]c(CC4CCC4)nc32)C1 (racemic) [Example 181] | 96 | 1 to 100 | –
59 | CC(C)(C)OC(=O)N1CCCC(n2ncc3c(=O)[nH]c(Cc4ccccn4)nc32)C1 (racemic) [Example 20] | 98 | 1 to 100 | –
60 | CN1CCCC(n2ncc3c(=O)[nH]c(Cc4cccc(C(F)(F)F)c4)nc32)C1 (racemic) [Example 216] | 96 | 1 to 100 | –
61 | CC(C)Cc1nc2c(cnn2C2CCOC2)c(=O)[nH]1 (single isomer, unassigned) [Example 132-4] | – | 1 to 100 | 98
62 | CC(C)(C)OC(=O)N1CCC(n2ncc3c(=O)[nH]c(Cc4ccccc4)nc32)C1 (racemic) [Example 15] | 92 | 101 to 1200 | –
63 | O=c1[nH]c(Cc2ccccn2)nc2c1cnn2C1CCCCO1 (racemic) [Example 145] | 84 | 101 to 1200 | –
64 | O=c1[nH]c(CC2CCCC2)nc2c1cnn2C1CCCN(CC(F)F)C1 (racemic) [Example 193] | 99 | 101 to 1200 | –
